The text below walks through data of patent USRE40667E1, “[R-(R*R*)]-2-(4-fluorophenyl)-β,δ-dihydroxy-5-(1-methylethyl-3-phenyl-4-[(phenylamino)carbonyl]-1H-pyrrole-1-heptanoic acid, its lactone form and salts thereof” (Warner-Lambert Company LLC, priority 1989, dated 2009).

SMILES strings stand for the structures.

The test system of this assay is biosynthesis of cholesterol. Kind of assay: CSI screen (cholesterol synthesis inhibition) as disclosed in U.S. Pat. No. 4,681,893. In kind it is biochemical. The source says: The compounds according to present invention and especially according to the compound of the formula I inhibit the biosynthesis of cholesterol as found in the CSI screen that is disclosed in U.S. Pat. No. 4,681,893 which is now also incorporated by reference therefor. The CSI data of the compound I, its enantiomer the compound II and the racemate of these two compounds are as follows: […]

In general, IC50 refers to the concentration at which inhibition is half-maximal. Lower therefore signals higher potency. The compound `CC(C)c1c(C(=O)Nc2ccccc2)c(-c2ccccc2)c(-c2ccc(F)cc2)n1CCC(O)CC(O)CC(=O)O` (single isomer, unassigned) [[S—(R*R*)] isomer] showed an IC50 of 440 nM.
Under `CC(C)c1c(C(=O)Nc2ccccc2)c(-c2ccccc2)c(-c2ccc(F)cc2)n1CC[C@@H](O)C[C@@H](O)CC(=O)O` (single isomer, unassigned) [[R—(R*R*)] isomer, [R-(R*,R*)]-2-(4-fluorophenyl)-β,δ-dihydroxy-5-(1-methylethyl)-3-phenyl-4-[(phenylamino)carbonyl]-1H-pyrrole-1-heptanoic acid] stands 4.4 nM.
